The supplement of paper PMC10307832

Legend:
Experiment in all cases: relative viability (nuclei count vs DMSO), 5 days (fraction); higher = more cells survive
Vismodegib + Palbociclib = compound: CS(=O)(=O)c1ccc(C(=O)Nc2ccc(Cl)c(-c3ccccn3)c2)c(Cl)c1 [Vismodegib] + CC(=O)c1c(C)c2cnc(Nc3ccc(N4CCNCC4)cn3)nc2n(C2CCCC2)c1=O [Palbociclib] (partner 0.5 µM)
In short: (§1)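 Lung cancer cell lines, seeded in 1536-well plates, were treated the following day by pin tool with a single drug or with five library-drug doses (not always all listed) in √10 steps on top of a fixed anchor-drug dose. Cells were fixed and nuclei stained in one step after 5 days, and nuclei were counted. Relative viability is the nuclei count for treated wells divided by that for vehicle wells, reported as medians of duplicate plates.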

[1] = compound: N#CC[C@H](C1CCCC1)n1cc(-c2ncnc3[nH]ccc23)cn1 [Ruxolitinib] + CC(=O)c1c(C)c2cnc(Nc3ccc(N4CCNCC4)cn3)nc2n(C2CCCC2)c1=O [Palbociclib] (partner 0.5 µM)
In short: as §1

VE-821 + AZD7762 = compound: CS(=O)(=O)c1ccc(-c2cnc(N)c(C(=O)Nc3ccccc3)n2)cc1 [VE-821] + NC(=O)Nc1cc(-c2cccc(F)c2)sc1C(=O)N[C@H]1CCCNC1 [AZD7762] (partner 0.2 µM)
In short: as §1

VE-821 + Navitoclax = compound: CS(=O)(=O)c1ccc(-c2cnc(N)c(C(=O)Nc3ccccc3)n2)cc1 [VE-821] + CC1(C)CCC(c2ccc(Cl)cc2)=C(CN2CCN(c3ccc(C(=O)NS(=O)(=O)c4ccc(N[C@H](CCN5CCOCC5)CSc5ccccc5)c(S(=O)(=O)C(F)(F)F)c4)cc3)CC2)C1 [Navitoclax] (partner 0.5 µM)
In short: as §1

Cell Line | relative viability (Vismodegib + Palbociclib; first compound 0.08 µM) | relative viability (Vismodegib + Palbociclib; first compound 0.253 µM) | relative viability (Vismodegib + Palbociclib; first compound 0.8 µM) | relative viability (Vismodegib + Palbociclib; first compound 2.53 µM) | relative viability (Vismodegib + Palbociclib; first compound 8 µM) | relative viability ([1]; first compound 0.08 µM) | relative viability ([1]; first compound 0.253 µM) | relative viability ([1]; first compound 0.8 µM) | relative viability ([1]; first compound 2.53 µM) | relative viability ([1]; first compound 8 µM) | relative viability (VE-821 + AZD7762; first compound 0.08 µM) | relative viability (VE-821 + AZD7762; first compound 0.253 µM) | relative viability (VE-821 + AZD7762; first compound 0.8 µM) | relative viability (VE-821 + AZD7762; first compound 2.53 µM) | relative viability (VE-821 + AZD7762; first compound 8 µM) | relative viability (VE-821 + Navitoclax; first compound 0.08 µM) | relative viability (VE-821 + Navitoclax; first compound 0.253 µM) | relative viability (VE-821 + Navitoclax; first compound 0.8 µM) | relative viability (VE-821 + Navitoclax; first compound 2.53 µM) | relative viability (VE-821 + Navitoclax; first compound 8 µM)
NCI-H1975 | 0.666 | 0.521 | 0.662 | 0.542 | 0.559 | 0.492 | 0.395 | 0.612 | 0.469 | 0.277 | 0.75 | 0.69 | 0.667 | 0.604 | 0.462 | 1 | 1.11 | 0.899 | 1.02 | 0.652
NCI-H2170 | 0.432 | 0.387 | 0.469 | 0.379 | 0.418 | 0.382 | 0.39 | 0.412 | 0.359 | 0.407 | 0.842 | 0.766 | 0.771 | 0.394 | 0.199 | 0.598 | 0.561 | 0.512 | 0.554 | 0.323
HOP-62 | 0.4 | 0.411 | 0.425 | 0.46 | 0.39 | 0.454 | 0.451 | 0.45 | 0.435 | 0.411 | 0.906 | 0.616 | 0.406 | 0.392 | 0.19 | 1.22 | 0.91 | 1.16 | 1.17 | 1.12
HCC-15 | 0.718 | 0.715 | 0.794 | 0.838 | 0.738 | 0.708 | 0.718 | 0.759 | 0.663 | 0.635 | 1.35 | 0.434 | 1.23 | 1.29 | 1.26 | 0.813 | 0.706 | 0.778 | 0.772 | 0.676
A-427 | 0.536 | 0.525 | 0.506 | 0.493 | 0.566 | 0.557 | 0.516 | 0.556 | 0.499 | 0.464 | 0.767 | 0.599 | 0.417 | 0.362 | 0.327 | 0.928 | 0.945 | 1.04 | 0.981 | 0.625
